The target in the experiment is PAFR (Homo sapiens, UniProt P25105). Nature of the experiment: PAF Binding Assay (PAFR binding).
PAFR, sequence (P25105 whole entry): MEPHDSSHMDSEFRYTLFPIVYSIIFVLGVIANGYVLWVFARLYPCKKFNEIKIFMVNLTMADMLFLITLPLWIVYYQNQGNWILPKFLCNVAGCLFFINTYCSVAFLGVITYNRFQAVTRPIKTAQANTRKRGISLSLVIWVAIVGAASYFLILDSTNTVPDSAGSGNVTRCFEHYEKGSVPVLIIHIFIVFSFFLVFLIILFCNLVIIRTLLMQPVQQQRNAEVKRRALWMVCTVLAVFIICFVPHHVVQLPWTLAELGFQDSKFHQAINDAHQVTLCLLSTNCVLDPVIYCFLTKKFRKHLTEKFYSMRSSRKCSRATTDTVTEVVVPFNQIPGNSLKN

A word on the IC50: it is the point on the concentration scale where inhibition reaches its midpoint. High values mean weaker potency in that assay, low ones greater potency in that assay. Turning to `CCc1cc(-c2cncc(OC)c2)ccc1S(=O)(=O)N[C@H]1CCC[C@@H](n2cnnc2)C1` [Compound 2Aan, 2-ethyl-4-(5-methoxypyridin-3-yl)-N-[(1S,3R)-3-(4H-1,2,4-triazol-4-yl)cyclohexyl]benzenesulfonamide], the IC50 was 71 nM.
`Cc1nncn1[C@@H]1CCC[C@H](NS(=O)(=O)c2ccc(OCCCC(F)(F)F)cc2)C1` [Compound 2Nac, N-[(1S,3R)-3-(3-methyl-4H-1,2,4-triazol-4-yl)cyclohexyl]-4-(4,4,4-trifluorobutoxy)benzenesulfonamide] yielded an IC50 of 4.7 nM.
The value for `CCc1cc(-c2ccc(OCC(F)(F)F)nc2)ccc1S(=O)(=O)N[C@@H]1C[C@H](n2cnnc2)CC(F)(F)C1` [Compound 2Cak, N-[(1R,5S)-3,3-difluoro-5-(4H-1,2,4-triazol-4-yl)cyclohexyl]-2-ethyl-4-[6-(2,2,2-trifluoroethoxy)pyridin-3-yl]benzenesulfonamide] was 3.1 nM; that for `CCc1cc(-c2ccc(OC(C)C)nc2)ccc1S(=O)(=O)N[C@H]1CCC[C@@H](n2cnnc2)C1` [Compound 2Aai, 2-ethyl-4-(6-isopropoxypyridin-3-yl)-N-[(1S,3R)-3-(4H-1,2,4-triazol-4-yl)cyclohexyl]benzenesulfonamide] was 1.8 nM.
Next, `O=S(=O)(N[C@H]1CCC[C@@H](n2cnnc2)C1)c1cc(-c2cccs2)cc(C(F)(F)F)c1` [Compound 3Aas, 3-(2-thienyl)-N-[(1S,3R)-3-(4H-1,2,4-triazol-4-yl)cyclohexyl]-5-(trifluoromethyl)benzenesulfonamide]: 3.8 nM.
In turn, `CCCCOc1ccc(S(=O)(=O)N[C@H]2CCC[C@@H](n3cnnc3C3CC3)C2)cc1F` [Compound 2Oaf, 4-butoxy-N-[(1S,3R)-3-(3-cyclopropyl-4H-1,2,4-triazol-4-yl)cyclohexyl]-3-fluorobenzenesulfonamide] yielded an IC50 of 1.7 nM.
Turning to “3-(2-aminopyrimidin-4-yl)-N-[(1R,5S)-3,3-difluoro-5-(3-methyl-4H-1,2,4-triazol-4-yl)cyclohexyl]-5-(trifluoromethyl)benzenesulfonamide [Compound 9Ab]”, the IC50 turned out to be 15 nM.
The value for `CCc1cc(-c2ccc(C)nc2)ccc1S(=O)(=O)N[C@H]1CCC[C@@H](n2cnnc2)C1` [Compound 2Ai, 2-ethyl-4-(6-methylpyridin-3-yl)-N-[(1S,3R)-3-(4H-1,2,4-triazol-4-yl)cyclohexyl]benzenesulfonamide] was 119 nM; that for `CC(C)(C)c1cccc(S(=O)(=O)N[C@H]2CCC[C@@H](n3cnnc3)C2)c1` [Compound 2Mf, 3-tert-butyl-N-[(1S,3R)-3-(4H-1,2,4-triazol-4-yl)cyclohexyl]benzenesulfonamide] was 157 nM; that for `CCc1ccc(S(=O)(=O)N[C@H]2CCC[C@@H](n3cnnc3)C2)cc1-c1ccccc1` [Compound 2Mm, 6-ethyl-N-[(1S,3R)-3-(4H-1,2,4-triazol-4-yl)cyclohexyl]biphenyl-3-sulfonamide] was 26 nM.
On to `CCc1cc(-c2ccc(OC(F)(F)F)cc2)ccc1S(=O)(=O)N[C@H]1CCC[C@@H](n2cnnc2C)C1` [Compound 2Abd, 3-ethyl-N-[(1S,3R)-3-(3-methyl-4H-1,2,4-triazol-4-yl)cyclohexyl]-4′-(trifluoromethoxy)biphenyl-4-sulfonamide], for which the IC50 was determined as 2.2 nM.
Next, `CC(C)Oc1ccc(S(=O)(=O)N[C@H]2CCC[C@@H](n3cnnc3)C2)cc1` [Compound 2Mz, 4-isopropoxy-N-[(1S,3R)-3-(4H-1,2,4-triazol-4-yl)cyclohexyl]benzenesulfonamide]: 25 nM; `Cc1nncn1[C@H]1C[C@@H](NS(=O)(=O)c2ccc(OCCCCF)cc2)CC(F)(F)C1` [Compound 2Qad, N-[(1R,5S)-3,3-difluoro-5-(3-methyl-4H-1,2,4-triazol-4-yl)cyclohexyl]-4-(4-fluorobutoxy)-benzenesulfonamide]: 8.8 nM; `CCCCOc1ccc(S(=O)(=O)N[C@H]2CCC[C@@H](n3cnnc3)C2)cc1` [Compound 2Mw, 4-butoxy-N-[(1S,3R)-3-(4H-1,2,4-triazol-4-yl)cyclohexyl]benzenesulfonamide]: 8.3 nM.
`CCc1cc(-c2ccc(C#N)nc2)ccc1S(=O)(=O)N[C@H]1CCC[C@@H](n2cnnc2)C1` [Compound 2Ah, 4-(6-cyanopyridin-3-yl)-2-ethyl-N-[(1S,3R)-3-(4H-1,2,4-triazol-4-yl)cyclohexyl]benzenesulfonamide] registered a half-inhibitory concentration (IC50) of 570 nM.
In turn, `CCc1cc(-c2ccc(F)nc2)ccc1S(=O)(=O)N[C@H]1CCC[C@@H](n2cnnc2)C1` [Compound 2Aam, 2-ethyl-4-(6-fluoropyridin-3-yl)-N-[(1S,3R)-3-(4H-1,2,4-triazol-4-yl)cyclohexyl]benzenesulfonamide] came in with an IC50 of 81 nM.
For `CCc1cc(-c2ccc(OC(F)(F)F)c(F)c2)ccc1S(=O)(=O)N[C@H]1CCC[C@@H](n2cnnc2C)C1` [Compound 2Abf, 3-ethyl-3′-fluoro-N-[(1S,3R)-3-(3-methyl-4H-1,2,4-triazol-4-yl)cyclohexyl]-4′-(trifluoromethoxy)biphenyl-4-sulfonamide], the IC50 was found to be 2.7 nM.
`CCc1cc(-c2cccnc2O)ccc1S(=O)(=O)N[C@H]1CCC[C@@H](n2cnnc2)C1` [Compound 2Aag, 2-ethyl-4-(2-hydroxypyridin-3-yl)-N-[(1S,3R)-3-(4H-1,2,4-triazol-4-yl)cyclohexyl]benzenesulfonamide] came in with a 50% inhibitory concentration (IC50) of 167 nM.
The value for `O=S(=O)(N[C@H]1CCC[C@@H](n2cnnc2)C1)c1cc(-c2cc(Cl)cn3ccnc23)cc(C(F)(F)F)c1` [Compound 3Aat, 3-(6-chloroimidazo[1,2-a]pyridin-8-yl)-N-[(1S,3R)-3-(4H-1,2,4-triazol-4-yl)cyclohexyl]-5-(trifluoromethyl)benzenesulfonamide] was 2.7 nM; that for `O=S(=O)(N[C@H]1CCC[C@@H](n2cnnc2)C1)c1cc(-c2ccc(O)nc2)cc(C(F)(F)F)c1` [Compound 3Ai, 3-(6-hydroxypyridin-3-yl)-N-[(1S,3R)-3-(4H-1,2,4-triazol-4-yl)cyclohexyl]-5-(trifluoromethyl)benzenesulfonamide] was 526 nM.
`Cc1nncn1[C@@H]1CCC[C@H](NS(=O)(=O)c2ccc(C(C)C)cc2)C1` [Compound 2Nq, 4-isopropyl-N-[(1S,3R)-3-(3-methyl-4H-1,2,4-triazol-4-yl)cyclohexyl]benzenesulfonamide] yielded an IC50 of 28 nM.
`CCc1cc(-c2noc(C3CC3)n2)ccc1S(=O)(=O)N[C@H]1CCC[C@@H](n2cnnc2C(F)(F)F)C1` [Compound 2Aa, 4-(5-cyclopropyl-1,2,4-oxadiazol-3-yl)-2-ethyl-N-{(1S,3R)-3-[3-(trifluoromethyl)-4H-1,2,4-triazol-4-yl]cyclohexyl}benzenesulfonamide] came in with an IC50 of 5.5 nM.
`O=S(=O)(N[C@H]1CCC[C@@H](n2cnnc2)C1)c1c(C2CC2)cc(-c2noc(C3CC(F)(F)C3)n2)cc1C1CC1` [Compound 2Rc, 2,6-dicyclopropyl-4-[5-(3,3-difluorocyclobutyl)-1,2,4-oxadiazol-3-yl]-N-[(1S,3R)-3-(4H-1,2,4-triazol-4-yl)cyclohexyl]benzenesulfonamide] showed an IC50 of 2.9 nM.
The value for `CCc1cc(-c2c(OC)cccc2OC(F)(F)F)ccc1S(=O)(=O)N[C@H]1CCC[C@@H](n2cnnc2)C1` [Compound 2Aab, 3-ethyl-2′-methoxy-N-[(1S,3R)-3-(4H-1,2,4-triazol-4-yl)cyclohexyl]-6′-(trifluoromethoxy)biphenyl-4-sulfonamide] was 54 nM; that for `CCc1cc(-n2cnnn2)ccc1S(=O)(=O)N[C@H]1CCC[C@@H](n2cnnc2)C1` [Compound 5a, 2-ethyl-4-(1H-tetrazol-1-yl)-N-[(1S,3R)-3-(4H-1,2,4-triazol-4-yl)cyclohexyl]benzenesulfonamide] was 815 nM; that for `CCc1cc(-c2cnc3ccnn3c2)cc(S(=O)(=O)N[C@H]2CCC[C@@H](n3cnnc3)C2)c1` [Compound 3Bax, 3-ethyl-5-pyrazolo[1,5-a]pyrimidin-6-yl-N-[(1S,3R)-3-(4H-1,2,4-triazol-4-yl)cyclohexyl]benzenesulfonamide] was 22 nM.
In the case of `O=S(=O)(N[C@H]1CCC[C@@H](n2cnnc2)C1)c1cc(-c2ccsc2)cc(C(F)(F)F)c1` [Compound 3Aar, 3-(3-thienyl)-N-[(1S,3R)-3-(4H-1,2,4-triazol-4-yl)cyclohexyl]-5-(trifluoromethyl)benzenesulfonamide], the concentration for half-maximal inhibition (IC50) was determined as 9.2 nM.
Next, `CCc1cc(-c2ccccc2F)ccc1S(=O)(=O)N[C@H]1CCC[C@@H](n2cnnc2)C1` [Compound 2Al, 3-ethyl-2′-fluoro-N-[(1S,3R)-3-(4H-1,2,4-triazol-4-yl)cyclohexyl]benzenesulfonamide]: 22 nM; `CCc1cccc(S(=O)(=O)N[C@@H]2C[C@H](n3cnnc3)CC(F)(F)C2)c1` [Compound 2Pk, N-[(1R,5S)-3,3-difluoro-5-(4H-1,2,4-triazol-4-yl)cyclohexyl]-3-ethylbenzenesulfonamide]: 370 nM.
For the compound `CCc1cc(-c2ccc(F)cc2F)ccc1S(=O)(=O)N[C@H]1CCC[C@@H](n2cnnc2)C1` [Compound 2Av, 3-ethyl-2′,4′-difluoro-N-[(1S,3R)-3-(4H-1,2,4-triazol-4-yl)cyclohexyl]biphenyl-4-sulfonamide], the IC50 was 16 nM.
The value for `Cc1nncn1[C@@H]1CCC[C@H](NS(=O)(=O)c2ccc(-c3noc(C4CCC4)n3)cc2OC(F)(F)F)C1` [Compound 2Bbg, 4-(5-cyclobutyl-1,2,4-oxadiazol-3-yl)-N-[(1S,3R)-3-(3-methyl-4H-1,2,4-triazol-4-yl)cyclohexyl]-2-(trifluoromethoxy)benzenesulfonamide] was 1.5 nM.
Next, `CCc1cc(-c2ccc(OC3CCC3)nc2)ccc1S(=O)(=O)N[C@H]1CCC[C@@H](n2cnnc2)C1` [Compound 2Aaq, 4-[6-(cyclobutyloxy)pyridin-3-yl]-2-ethyl-N-[(1S,3R)-3-(4H-1,2,4-triazol-4-yl)cyclohexyl]benzenesulfonamide]: 0.8 nM; `O=S(=O)(N[C@H]1CCC[C@@H](n2cnnc2)C1)c1ccc(-c2noc(C3(O)CC3)n2)cc1C1CC1` [Compound 2Ke, 2-cyclopropyl-4-[5-(1-hydroxycyclopropyl)-1,2,4-oxadiazol-3-yl]-N-[(1S,3R)-3-(4H-1,2,4-triazol-4-yl)cyclohexyl]benzenesulfonamide]: 337 nM.

Source of the values: patent publication US9029377B2, “Platelet-activating factor receptor antagonists” (Merck Sharp & Dohme Corp., priority 2009, dated 2015).
